Measured values published in US20120115724A1, “METHOD OF CONTROLLING UNDESIRED VEGETATION” (SYNGENTA CROP PROTECTION LLC, priority 2009, published 2012).

Tests used:
Assay type in all cases: in vivo
[1] = test system: Alopecurus myosuroides (ALOMY); test: Post-emergence biological efficacy (Example 14); conditions: post-emergence, 1,000 g/ha, after 13 days; for pest or weed control at 1000 g/ha: Alopecurus myosuroides, 312 h, read-out: Percentage damage ALOMY
Protocol: (§1) Seeds of Alopecurus myosuroides (ALOMY), Setaria faberi (SETFA), Echinochloa crus-galli (ECHCG), Solanum nigrum (SOLNI), Amaranthus retroflexus (AMARE) and Ipomea hederaceae (IPOHE) were sown in standard soil in pots. After cultivation for 8 days under controlled conditions in a glasshouse (at 24/16° C., day/night; 14 hours light; 65% humidity), the plants were sprayed with an aqueous spray solution derived from the formulation of the technical active ingredient in acetone/water (50:50) solution containing 0.5% Tween 20 (polyoxyethylene sorbitan monolaurate, CAS RN 9005-64-5) to give a final dose of 250 or 1000 g/ha of test compound. The test plants were then grown on under controlled conditions in a glasshouse (at 24/16° C., day/night; 14 hours light; 65% humidity) and watered twice daily. After 13 days the test was evaluated (100=total damage to plant; 0=no damage to plant).

[2] = test system: Echinochloa crus-galli (ECHCG); test: Post-emergence biological efficacy (Example 14); conditions: post-emergence, 1,000 g/ha, after 13 days; for pest or weed control at 1000 g/ha: Echinochloa crus-galli, 312 h, read-out: Percentage damage ECHCG
Protocol: as §1

Solanum nigrum (SOLNI) [3] = test: Post-emergence biological efficacy (Example 14); conditions: post-emergence, 1,000 g/ha, after 13 days; for pest or weed control at 1000 g/ha: Solanum nigrum, 312 h, read-out: Percentage damage SOLNI
Protocol: as §1

[4] = test system: Amaranthus retroflexus (AMARE); test: Post-emergence biological efficacy (Example 14); conditions: post-emergence, 1,000 g/ha, after 13 days; for pest or weed control at 1000 g/ha: Amaranthus retroflexus, 312 h, read-out: Percentage damage AMARE
Protocol: as §1

Setaria faberi (SETFA) [5] = test: Post-emergence biological efficacy (Example 14); conditions: post-emergence, 1,000 g/ha, after 13 days; for pest or weed control at 1000 g/ha: Setaria faberi, 312 h, read-out: Percentage damage SETFA
Protocol: as §1

[6] = test system: Ipomea hederaceae (IPOHE); test: Post-emergence biological efficacy (Example 14); conditions: post-emergence, 1,000 g/ha, after 13 days; for pest or weed control at 1000 g/ha: Ipomoea hederacea, 312 h, read-out: Percentage damage IPOHE
Protocol: as §1

[7] = test system: Alopecurus myosuroides (ALOMY); test: Pre-emergence biological efficacy (Example 13); conditions: pre-emergence, 1,000 g/ha, after 13 days; for pest or weed control at 1000 g/ha: Alopecurus myosuroides, 312 h, read-out: Percentage damage ALOMY
Protocol: (§2) Seeds of Alopecurus myosuroides (ALOMY), Setaria faberi (SETFA), Echinochloa crus-galli (ECHCG), Solanum nigrum (SOLNI), Amaranthus retroflexus (AMARE) and Ipomea hederaceae (IPOHE) were sown in standard soil in pots. After cultivation for one day under controlled conditions in a glasshouse (at 24/16° C., day/night; 14 hours light; 65% humidity), the plants were sprayed with an aqueous spray solution derived from the formulation of the technical active ingredient in acetone/water (50:50) solution containing 0.5% Tween 20 (polyoxyethylene sorbitan monolaurate, CAS RN 9005-64-5) to give a final dose of 250 or 1000g/ha of test compound. The test plants were then grown under controlled conditions in the glasshouse (at 24/16° C., day/night; 14 hours light; 65% humidity) and watered twice daily. After 13 days the test was evaluated (100 =total damage to plant; 0 =no damage to plant).

[8] = test system: Echinochloa crus-galli (ECHCG); test: Pre-emergence biological efficacy (Example 13); conditions: pre-emergence, 1,000 g/ha, after 13 days; for pest or weed control at 1000 g/ha: Echinochloa crus-galli, 312 h, read-out: Percentage damage ECHCG
Protocol: as §2

Solanum nigrum (SOLNI) [9] = test: Pre-emergence biological efficacy (Example 13); conditions: pre-emergence, 1,000 g/ha, after 13 days; for pest or weed control at 1000 g/ha: Solanum nigrum, 312 h, read-out: Percentage damage SOLNI
Protocol: as §2

[10] = test system: Amaranthus retroflexus (AMARE); test: Pre-emergence biological efficacy (Example 13); conditions: pre-emergence, 1,000 g/ha, after 13 days; for pest or weed control at 1000 g/ha: Amaranthus retroflexus, 312 h, read-out: Percentage damage AMARE
Protocol: as §2

Setaria faberi (SETFA) [11] = test: Pre-emergence biological efficacy (Example 13); conditions: pre-emergence, 1,000 g/ha, after 13 days; for pest or weed control at 1000 g/ha: Setaria faberi, 312 h, read-out: Percentage damage SETFA
Protocol: as §2

[12] = test system: Ipomea hederaceae (IPOHE); test: Pre-emergence biological efficacy (Example 13); conditions: pre-emergence, 1,000 g/ha, after 13 days; for pest or weed control at 1000 g/ha: Ipomoea hederacea, 312 h, read-out: Percentage damage IPOHE
Protocol: as §2

Structure (SMILES) | pest or weed control at 1000 g/ha [1] [%] | pest or weed control at 1000 g/ha [2] [%] | pest or weed control at 1000 g/ha (Solanum nigrum (SOLNI) [3]) [%] | pest or weed control at 1000 g/ha [4] [%] | pest or weed control at 1000 g/ha (Setaria faberi (SETFA) [5]) [%] | pest or weed control at 1000 g/ha [6] [%] | pest or weed control at 1000 g/ha [7] [%] | pest or weed control at 1000 g/ha [8] [%] | pest or weed control at 1000 g/ha (Solanum nigrum (SOLNI) [9]) [%] | pest or weed control at 1000 g/ha [10] [%] | pest or weed control at 1000 g/ha (Setaria faberi (SETFA) [11]) [%] | pest or weed control at 1000 g/ha [12] [%] | also measured
C=Cc1c(N)nc(-c2ccc(Cl)c(N(C)C)c2F)nc1C(=O)OCCOCCCC [Compound 46, 4-Amino-6-(2- ^nbutoxy-ethoxy)carbonyl-2-(4-chloro-3-dimethylamino-2-fluorophenyl)-5-ethenyl-pyrimidine] | – | – | – | – | – | – | – | – | – | – | – | – | Percentage damage ALOMY [1]: 80%; Percentage damage ECHCG [2]: 90%; Percentage damage SOLNI (Solanum nigrum (SOLNI) [3]): 90%; Percentage damage AMARE [4]: 100%; Percentage damage SETFA (Setaria faberi (SETFA) [5]): 90%; Percentage damage IPOHE [6]: 80%; Percentage damage ALOMY [7]: 80%; Percentage damage ECHCG [8]: 100%; Percentage damage SOLNI (Solanum nigrum (SOLNI) [9]): 100%; Percentage damage AMARE [10]: 100%; Percentage damage SETFA (Setaria faberi (SETFA) [11]): 90%; Percentage damage IPOHE [12]: 50%
C=Cc1c(NC2CCC2)nc(-c2ccc(Cl)c(OC)c2F)nc1C(=O)OC [Compound 24, 2-(4-Chloro-2-fluoro-3-methoxyphenyl)-4-cyclobutylamino-5-ethenyl-6-methoxycarbonyl pyrimidine] | 10 | 40 | 90 | 100 | 10 | 70 | 10 | 50 | 80 | 100 | 0 | 80 | –
C=Cc1c(NCc2ccco2)nc(-c2ccc(Cl)c(N(C)C)c2F)nc1C(=O)OC [Compound 13, 2-(4-Chloro-3-dimethylamino-2-fluorophenyl)-5-ethenyl-4-(furan-2-ylmethylamino)-6-methoxycarbonyl-pyrimi-dine] | 70 | 80 | 100 | 100 | 80 | 40 | 70 | 90 | 90 | 90 | 60 | 20 | –
C=Cc1c(NCc2ccco2)nc(-c2ccc(Cl)c(OC)c2F)nc1C(=O)OCc1ccccc1 [Compound 47, 2-(4-Chloro-2-fluoro-3-methoxyphenyl)-5-ethenyl-4-(furan-2-ylmethylamino)-6-phenylmethoxy-carbonyl-pyrimidine] | 60 | 80 | 80 | 100 | 80 | 80 | 30 | 90 | 80 | 70 | 50 | 80 | –
C=Cc1c(NCc2ccco2)nc(-c2ccc(Cl)c(OC)c2F)nc1C(=O)O [Compound 35, 2-(4-Chloro-2-fluoro-3-methoxyphenyl)-5-ethenyl-4-(furan-2-ylmethylamino)-pyrimidine-6-carboxylic acid] | 70 | 80 | 90 | 100 | 80 | 70 | 70 | 90 | 100 | 100 | 90 | 100 | –
